Test results reported in the supplement of paper PMC10307832.

Columns and labels:
Test in all cases: relative viability (nuclei count vs DMSO), 5 days (fraction); higher = more cells survive
NCI-H460 = system: NCI-H460
Method in brief: (§1)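 Lung cancer cell lines in 1536-well plates were dosed by pin tool the day after seeding, either with one drug alone or with a fixed anchor-drug dose plus five library-drug doses (not always all listed) in √10 steps. After 5 days, cells were fixed and their nuclei stained in one step (final 0.05% Triton X-100, 1% formaldehyde, 1 ug/ml Hoechst), then counted on 4× images. Relative viability is the nuclei count in treated wells divided by that in vehicle wells. Values are medians of duplicate plates.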

NCI-H2009 = system: NCI-H2009
Method in brief: as §1

A549 = system: A549
Method in brief: as §1

NCI-H1703 = system: NCI-H1703
Method in brief: as §1

HCC-78 = system: HCC-78
Method in brief: as §1

IA-LM = system: IA-LM
Method in brief: as §1

EBC-1 = system: EBC-1
Method in brief: as §1

Calu-6 = system: Calu-6
Method in brief: as §1

NCI-H1299 = system: NCI-H1299
Method in brief: as §1

## Cc1sc2c(c1C)C(c1ccc(Cl)cc1)=N[C@@H](CC(=O)OC(C)(C)C)c1nnc(C)n1-2 [JQ1] + CC1(C)CCC(c2ccc(Cl)cc2)=C(CN2CCN(c3ccc(C(=O)NS(=O)(=O)c4ccc(N[C@H](CCN5CCOCC5)CSc5ccccc5)c(S(=O)(=O)C(F)(F)F)c4)cc3)CC2)C1 [Navitoclax] (partner 0.5 µM)
NCI-H460; first compound 0.04 µM
  relative viability: 1.02
NCI-H460; first compound 0.1265 µM
  relative viability: 0.671
NCI-H460; first compound 0.4 µM
  relative viability: 0.499
NCI-H460; first compound 1.265 µM
  relative viability: 0.0782
NCI-H460; first compound 4 µM
  relative viability: 0.0465
NCI-H2009; first compound 0.04 µM
  relative viability: 1.2
NCI-H2009; first compound 0.1265 µM
  relative viability: 0.938
NCI-H2009; first compound 0.4 µM
  relative viability: 0.837
NCI-H2009; first compound 1.265 µM
  relative viability: 0.359
NCI-H2009; first compound 4 µM
  relative viability: 0.388
A549; first compound 0.04 µM
  relative viability: 1.27
A549; first compound 0.1265 µM
  relative viability: 1.06
A549; first compound 0.4 µM
  relative viability: 1.13
A549; first compound 1.265 µM
  relative viability: 0.702
A549; first compound 4 µM
  relative viability: 0.313
NCI-H1703; first compound 0.04 µM
  relative viability: 1.27
NCI-H1703; first compound 0.1265 µM
  relative viability: 0.637
NCI-H1703; first compound 0.4 µM
  relative viability: 0.928
NCI-H1703; first compound 1.265 µM
  relative viability: 0.405
NCI-H1703; first compound 4 µM
  relative viability: 0.309
HCC-78; first compound 0.04 µM
  relative viability: 0.799
HCC-78; first compound 0.1265 µM
  relative viability: 0.761
HCC-78; first compound 0.4 µM
  relative viability: 0.465
HCC-78; first compound 1.265 µM
  relative viability: 0.285
HCC-78; first compound 4 µM
  relative viability: 0.242
IA-LM; first compound 0.04 µM
  relative viability: 0.745
IA-LM; first compound 0.1265 µM
  relative viability: 0.294
IA-LM; first compound 0.4 µM
  relative viability: 0.126
IA-LM; first compound 1.265 µM
  relative viability: 0.0769
IA-LM; first compound 4 µM
  relative viability: 0.0558
EBC-1; first compound 0.04 µM
  relative viability: 0.389
EBC-1; first compound 0.1265 µM
  relative viability: 0.165
EBC-1; first compound 0.4 µM
  relative viability: 0.174
EBC-1; first compound 1.265 µM
  relative viability: 0.136
EBC-1; first compound 4 µM
  relative viability: 0.125
Calu-6; first compound 0.04 µM
  relative viability: 0.821
Calu-6; first compound 0.1265 µM
  relative viability: 0.757
Calu-6; first compound 0.4 µM
  relative viability: 0.792
Calu-6; first compound 1.265 µM
  relative viability: 0.481
Calu-6; first compound 4 µM
  relative viability: 0.309
NCI-H1299; first compound 0.04 µM
  relative viability: 1.02
NCI-H1299; first compound 0.1265 µM
  relative viability: 0.92
NCI-H1299; first compound 0.4 µM
  relative viability: 0.933
NCI-H1299; first compound 1.265 µM
  relative viability: 0.591
NCI-H1299; first compound 4 µM
  relative viability: 0.419

## COc1cc2nccc(Oc3ccc(NC(=O)Nc4cc(C)on4)c(Cl)c3)c2cc1OC [Tivozanib] + CC1(C)CCC(c2ccc(Cl)cc2)=C(CN2CCN(c3ccc(C(=O)NS(=O)(=O)c4ccc(N[C@H](CCN5CCOCC5)CSc5ccccc5)c(S(=O)(=O)C(F)(F)F)c4)cc3)CC2)C1 [Navitoclax] (partner 0.5 µM)
NCI-H460; first compound 0.005 µM
  relative viability: 1.09
NCI-H460; first compound 0.01581 µM
  relative viability: 1.24
NCI-H460; first compound 0.05 µM
  relative viability: 1.13
NCI-H460; first compound 0.1581 µM
  relative viability: 1.17
NCI-H460; first compound 0.5 µM
  relative viability: 1.1
NCI-H2009; first compound 0.005 µM
  relative viability: 1.11
NCI-H2009; first compound 0.01581 µM
  relative viability: 1.16
NCI-H2009; first compound 0.05 µM
  relative viability: 1.19
NCI-H2009; first compound 0.1581 µM
  relative viability: 1.24
NCI-H2009; first compound 0.5 µM
  relative viability: 1.14
A549; first compound 0.005 µM
  relative viability: 1.22
A549; first compound 0.01581 µM
  relative viability: 1.32
A549; first compound 0.05 µM
  relative viability: 1.14
A549; first compound 0.1581 µM
  relative viability: 1.23
A549; first compound 0.5 µM
  relative viability: 1.19
NCI-H1703; first compound 0.005 µM
  relative viability: 0.369
NCI-H1703; first compound 0.01581 µM
  relative viability: 0.244
NCI-H1703; first compound 0.05 µM
  relative viability: 0.219
NCI-H1703; first compound 0.1581 µM
  relative viability: 0.251
NCI-H1703; first compound 0.5 µM
  relative viability: 0.249
HCC-78; first compound 0.005 µM
  relative viability: 0.656
HCC-78; first compound 0.01581 µM
  relative viability: 0.808
HCC-78; first compound 0.05 µM
  relative viability: 0.765
HCC-78; first compound 0.1581 µM
  relative viability: 0.756
HCC-78; first compound 0.5 µM
  relative viability: 0.677
IA-LM; first compound 0.005 µM
  relative viability: 0.728
IA-LM; first compound 0.01581 µM
  relative viability: 0.899
IA-LM; first compound 0.05 µM
  relative viability: 0.737
IA-LM; first compound 0.1581 µM
  relative viability: 0.574
IA-LM; first compound 0.5 µM
  relative viability: 0.582
EBC-1; first compound 0.005 µM
  relative viability: 0.359
EBC-1; first compound 0.01581 µM
  relative viability: 0.437
EBC-1; first compound 0.05 µM
  relative viability: 0.528
EBC-1; first compound 0.1581 µM
  relative viability: 0.436
EBC-1; first compound 0.5 µM
  relative viability: 0.485
Calu-6; first compound 0.005 µM
  relative viability: 0.739
Calu-6; first compound 0.01581 µM
  relative viability: 0.896
Calu-6; first compound 0.05 µM
  relative viability: 0.798
Calu-6; first compound 0.1581 µM
  relative viability: 0.874
Calu-6; first compound 0.5 µM
  relative viability: 0.74
NCI-H1299; first compound 0.005 µM
  relative viability: 1.03
NCI-H1299; first compound 0.01581 µM
  relative viability: 1.07
NCI-H1299; first compound 0.05 µM
  relative viability: 1.05
NCI-H1299; first compound 0.1581 µM
  relative viability: 1.05
NCI-H1299; first compound 0.5 µM
  relative viability: 0.981
